Source: patent US12577247B2 (BUGWORKS RESEARCH, INC., priority 2021, dated 2026)

What was measured:
A2A receptor = target: T1, A2A receptor (Homo sapiens, UniProt P29274); test: A2aR antagonism IC50, cAMP TR-FRET in HEK-293 cells, high concentration of adenosine (30 μM); type: cell-based; settings: HEK-293 cells expressing A2A receptor; agonist adenosine 30 μM; 2% HSA; inhibition of cAMP; read-out: A2AR IC50 (nM) (@30 μM Adenosine);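 further: compounds added 10 min before adenosine, then 30 min stimulation at room temperature in buffer with 100 µM rolipram and 30 µM EHNA, signal read 1 h after detection reagents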
T1 construct: host or cells: HEK-293
Procedure: (§1) A Time-Resolved Fluorescence Energy Transfer (TR-FRET) assay was used to show the inhibition of this cAMP production in HEK cells upon treatment with compounds of the Formula I of the present disclosure.
(§2) HEK-293 cells expressing A2A receptor (#ES-011-C) or A2B receptor (#ES 013-C) were obtained from PerkinElmer. Cells were maintained in DMEM medium supplemented with 10% FBS and 200 μg/mL of G418 at 37° C. and 5% CO2. The cells were cultured in antibiotic free medium for a period of 16-20 hours prior to the assay. All subsequent steps of the assay are performed at room temperature (22-24° C.). […] About 1500 cells per well were pre-incubated for 10 minutes with the compounds of the present invention before adding the agonist Adenosine at a high concentration (30 μM) for a total stimulation time of 30 minutes. […] The assays were conducted in a stimulation buffer containing 1×DMEM, 5 mM HEPES, 2% Human serum albumin (HSA), 100 μM Rolipram and 30 μM erythro-9-(2-hydroxy-3-nonyl) adenine (EHNA). Serial dilutions of compounds were made in stimulation buffer to achieve a final concentration of high micromolar in a reaction volume of 10 μL. The total reaction volume was 10 μL (5 μL of cells, 2.5 μL of antagonist and 2.5 μL of agonist). […] The stimulation was ended, and the reaction completed by adding 5 μL of 4× Eu-cAMP tracer working solution and 5 μL of 4× ULight-anti-cAMP working solution. The TR FRET signal was measured after 1-hour incubation using a Tecan M1000 or a PerkinElmer Victor Nivo plate reader.

A2B receptor = target: T2, A2B receptor (Homo sapiens, UniProt P29275); test: A2bR antagonism IC50, cAMP TR-FRET in HEK-293 cells, high concentration of adenosine (30 μM); settings: A2BR IC50 (nM) (@30 μM Adenosine), HEK-293 cells expressing A2B receptor; agonist adenosine 30 μM; 2% HSA; inhibition of cAMP;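 further: compounds preincubated 10 min with cells, then adenosine stimulation 30 min at room temperature in buffer with Rolipram 100 µM and EHNA 30 µM, TR-FRET read after 1 h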
T2 sequence (P29275 1-332): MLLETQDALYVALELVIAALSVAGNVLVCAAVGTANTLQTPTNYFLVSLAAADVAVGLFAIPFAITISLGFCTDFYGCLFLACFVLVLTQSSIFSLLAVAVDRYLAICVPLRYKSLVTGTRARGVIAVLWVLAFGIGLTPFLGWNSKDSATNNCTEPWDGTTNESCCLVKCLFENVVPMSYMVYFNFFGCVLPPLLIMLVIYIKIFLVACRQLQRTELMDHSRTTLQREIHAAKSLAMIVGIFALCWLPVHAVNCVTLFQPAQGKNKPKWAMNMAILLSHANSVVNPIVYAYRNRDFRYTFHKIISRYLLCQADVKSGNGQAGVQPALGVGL
Procedure: as §1, §2

T1 sequence (P29274 whole entry): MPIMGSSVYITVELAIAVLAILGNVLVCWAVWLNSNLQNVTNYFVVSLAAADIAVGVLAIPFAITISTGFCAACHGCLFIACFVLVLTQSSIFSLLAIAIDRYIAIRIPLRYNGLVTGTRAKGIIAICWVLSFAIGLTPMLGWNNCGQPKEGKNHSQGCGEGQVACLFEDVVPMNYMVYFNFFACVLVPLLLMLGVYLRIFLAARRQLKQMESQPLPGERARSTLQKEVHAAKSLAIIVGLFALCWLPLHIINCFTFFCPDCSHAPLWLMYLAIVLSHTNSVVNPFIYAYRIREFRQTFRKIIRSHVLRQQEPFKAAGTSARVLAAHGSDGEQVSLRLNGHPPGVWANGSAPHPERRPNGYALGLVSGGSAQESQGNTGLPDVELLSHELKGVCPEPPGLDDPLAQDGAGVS

Structure (SMILES) | IC50 (A2A receptor) [nM] | IC50 (A2B receptor) [nM]
CCc1c(C)nn2c(N)c(C#N)c(NCCc3cccn(CC4CC(O)C4)c3=O)nc12 (stereo not shown) [Example 128, 7-amino-3-ethyl-5-((2-(1-((3-hydroxycyclobutyl)methyl)-2-oxo-1,2-dihydropyridin-3-yl)ethyl)amino)-2-methylpyrazolo[1,5-a]pyrimidine-6-carbonitrile] | 368 | 1110
CCc1c(C)nn2c(N)c(C#N)c(NCCc3cccn(CCC[S+](C)[O-])c3=O)nc12 (single isomer, unassigned; (-)) [Example 154a, (−)-7-amino-3-ethyl-2-methyl-5-((2-(1-(3-(methylsulfinyl)propyl)-2-oxo-1,2-dihydropyridin-3-yl)ethyl)amino) pyrazolo[1,5-a]pyrimidine-6-carbonitrile] | 1050 | 1540
CCc1c(C)nn2c(N)c(C#N)c(NCCc3ccn(C4(CNCC[S+](C)[O-])CC4)n3)nc12 (single isomer, unassigned; (-)) [Example 163a, (−)-7-amino-3-ethyl-2-methyl-5-((2-(1-(1-(((2-(methylsulfinyl)ethyl)amino)methyl)cyclopropyl)-1H-pyrazol-3-yl)ethyl)amino) pyrazolo[1,5-a]pyrimidine-6-carbonitrile] | 72 | 11100
CCCc1c(C)nn2c(N)c(C#N)c(NCCc3cccc(CO)n3)nc12 [Example 157, 7-amino-5-((2-(6-(hydroxymethyl)397yridine-2-yl)ethyl)amino)-2-methyl-3-propylpyrazolo[1,5-a]pyrimidine-6-carbonitrile] | 1670 | 2930
Cc1nn2c(N)c(C#N)c(NCCc3ccn(C4CCC4CO)n3)nc2c1C (single isomer, unassigned; (+)) [Example 104a, (+)-7-amino-5-((2-(1-(2-(hydroxymethyl)cyclobutyl)-1H-pyrazol-3-yl)ethyl)amino)-2,3-dimethylpyrazolo[1,5-a]pyrimidine-6-carbonitrile] | 88 | 2260
Cc1nn2c(N)c(C#N)c(NCCc3ccn(C4CCC4CO)n3)nc2c1CC1CC1 (stereo not shown) [Example 116, 7-amino-3-(cyclopropylmethyl)-5-((2-(1-(2-(hydroxymethyl)cyclobutyl)-1H-pyrazol-3-yl)ethyl)amino)-2-methylpyrazolo[1,5-a]pyrimidine-6-carbonitrile] | 427 | 2100
Cc1nn2c(N)c(C#N)c(NCCc3ccn(C4CCC4CO)n3)nc2c1Br (stereo not shown) [Example 130, 7-amino-3-bromo-5-((2-(1-(2-(hydroxymethyl)cyclobutyl)-1H-pyrazol-3-yl)ethyl)amino)-2-methylpyrazolo[1,5-a]pyrimidine-6-carbonitrile] | 280 | 5880
Cc1nn2c(N)c(C#N)c(NCCc3ccn(C4(CO)CC4)n3)nc2c1CC1CC1 [Example 74, 7-amino-3-(cyclopropylmethyl)-5-((2-(1-(1-(hydroxymethyl)cyclopropyl)-1H-pyrazol-3-yl)ethyl)amino)-2-methylpyrazolo[1,5-a]pyrimidine-6-carbonitrile] | 398 | 1080
CCn1cccc(CCNc2nc3c(Cl)c(C)nn3c(N)c2C#N)c1=O [Example 70, 7-amino-3-chloro-5-((2-(1-ethyl-2-oxo-1,2-dihydropyridin-3-yl)ethyl)amino)-2-methylpyrazolo[1,5-a]pyrimidine-6-carbonitrile] | 125 | > 15000
CCCc1c(C)nn2c(N)c(C#N)c(NCCc3ccn(C4COCC4CO)n3)nc12 (single isomer, unassigned; (+)) [Example 160a, (+) 7-amino-5-((2-(1-(4-(hydroxymethyl)tetrahydrofuran-3-yl)-1H-pyrazol-3-yl)ethyl)amino)-2-methyl-3-propylpyrazolo[1,5-a]pyrimidine-6-carbonitrile] | 579 | 1930
CCc1c(C)nn2c(N)c(C#N)c(NCCc3cccc(OCCO)n3)nc12 [Example 150, 7-amino-3-ethyl-5-((2-(6-(2-hydroxyethoxy)pyridin-2-yl)ethyl)amino)-2-methylpyrazolo[1,5-a] pyrimidine-6-carbonitrile] | 1150 | 1630
Cc1nn2c(N)c(C#N)c(NCCc3ccn(C4(CO)CC4)n3)nc2c1CC1CCC1 [Example 137, 7-amino-3-(cyclobutylmethyl)-5-((2-(1-(1-(hydroxymethyl)cyclopropyl)-1H-pyrazol-3-yl)ethyl)amino)-2-methylpyrazolo[1,5-a]pyrimidine-6-carbonitrile] | 820 | > 15000
CCc1cccc(CCNc2nc3c(Cl)c(C)nn3c(N)c2C#N)n1 [Example 120, 7-amino-3-chloro-5-((2-(6-ethylpyridin-2-yl)ethyl)amino)-2-methylpyrazolo[1,5-a]pyrimidine-6-carbonitrile] | 529 | 8630
CCc1c(C)nn2c(N)c(C#N)c(NCCc3cccc(C(C)O)n3)nc12 (single isomer, unassigned; (+)) [Example 159a, (+)-7-amino-3-ethyl-5-((2-(6-(1-hydroxyethyl)pyridin-2-yl)ethyl)amino)-2-methylpyrazolo[1,5-a]pyrimidine-6-carbonitrile] | 139 | 911
CCc1c(C(F)F)nn2c(N)c(C#N)c(NCCc3ccn(C4CCC4CO)n3)nc12 (stereo not shown) [Example 102, 7-amino-2-(difluoromethyl)-3-ethyl-5-((2-(1-(2-(hydroxymethyl)cyclobutyl)-1H-pyrazol-3-yl)ethyl)amino) pyrazolo[1,5-a]pyrimidine-6-carbonitrile] | 804 | 8300
CCCc1c(C)nn2c(N)c(C#N)c(NCCc3ccn(C4CCC4CO)n3)nc12 (single isomer, unassigned; (-)) [Example 165b, (−)-7-amino-5-((2-(1-(2-(hydroxymethyl)cyclobutyl)-1H-pyrazol-3-yl)ethyl)amino)-2-methyl-3-propylpyrazolo[1,5-a]pyrimidine-6-carbonitrile] | 1540 | 9160
Cc1nn2c(N)c(C#N)c(NCCc3ccn(CC4CC(O)C4)n3)nc2c1Cl (single isomer, unassigned; (-)) [Example 84, (−)-7-amino-3-chloro-5-((2-(1-((3-hydroxycyclobutyl)methyl)-1H-pyrazol-3-yl)ethyl)amino)-2-methylpyrazolo[1,5-a]pyrimidine-6-carbonitrile] | 102 | 4250
Cc1nn2c(N)c(C#N)c(NCCc3ccn(C4COCC4CO)n3)nc2c1C (racemic) [Example 132, (+−)-7-amino-5-((2-(1-(4-(hydroxymethyl)tetrahydrofuran-3-yl)-1H-pyrazol-3-yl)ethyl)amino)-2,3-dimethylpyrazolo[1,5-a]pyrimidine-6-carbonitrile] | 248 | 
Cc1nn2c(N)c(C#N)c(NCCc3ccn(C4(CO)CC4)n3)nc2c1C1CC1 [Example 101, 7-amino-3-cyclopropyl-5-((2-(1-(1-(hydroxymethyl)cyclopropyl)-1H-pyrazol-3-yl)ethyl)amino)-2-methylpyrazolo[1,5-a]pyrimidine-6-carbonitrile] | 2100 | > 15000
CCc1c(C)nn2c(N)c(C#N)c(NCCc3cccc(CNCCO)n3)nc12 [Example 97, 7-amino-3-ethyl-5-((2-(6-(((2-hydroxyethyl)amino)methyl)pyridine-2-yl)ethyl)amino)-2-methylpyrazolo[1,5-a]pyrimidine-6-carbonitrile] | 451 | 1430
CCc1c(C)nn2c(N)c(C#N)c(NCCc3cccn(CCCN)c3=O)nc12 [Example 136, 7-amino-5-((2-(1-(3-aminopropyl)-2-oxo-1,2-dihydropyridin-3-yl)ethyl)amino)-3-ethyl-2-methylpyrazolo[1,5-a]pyrimidine-6-carbonitrile] | 506 | 2610
CCc1c(C)nn2c(N)c(C#N)c(NCCc3cccn(CCSC)c3=O)nc12 [Example 142, 7-amino-3-ethyl-2-methyl-5-((2-(1-(2-(methylthio)ethyl)-2-oxo-1,2-dihydropyridin-3-yl)ethyl)amino)pyrazolo[1,5-a]pyrimidine-6-carbonitrile] | 141 | 1660
CCc1c(C)nn2c(N)c(C#N)c(NCCc3cccn(CC[S+](C)[O-])c3=O)nc12 (racemic) [Example 143, Racemic (+−)7-amino-3-ethyl-2-methyl-5-((2-(1-(2-(methylsulfinyl)ethyl)-2-oxo-1,2-dihydropyridin-3-yl)ethyl)amino) pyrazolo[1,5-a]pyrimidine-6-carbonitrile] | 667 | 1340
Cc1cccc(CCNc2nc3c(Cl)c(C)nn3c(N)c2C#N)n1 [Example 119, 7-amino-3-chloro-2-methyl-5-((2-(6-methylpyridin-2-yl)ethyl)amino) pyrazolo[1,5-a]pyrimidine-6-carbonitrile] | 260 | 3410
CCc1c(C)nn2c(N)c(C#N)c(NCCc3cccc(CNCCOC)n3)nc12 [Example 96, 7-amino-3-ethyl-5-((2-(6-(((2-methoxyethyl)amino)methyl)321yridine-2-yl)ethyl)amino)-2-methylpyrazolo[1,5-a]pyrimidine-6-carbonitrile] | 456 | 
Cc1nn2c(N)c(C#N)c(NCCc3cccc(CNCCO)n3)nc2c1C [Example 105, 7-amino-5-((2-(6-(((2-hydroxyethyl)amino)methyl)pyridin-2-yl)ethyl)amino)-2,3-dimethylpyrazolo[1,5-a]pyrimidine-6-carbonitrile] |  | 3870
